{"source": "patent EP0221208B1", "about": "“Hair growth promoting compositions” (MEIJI SEIKA KAISHA LTD., priority 1985, dated 1987)", "system": "Cynomolgus monkeys (Crab-eating macaques)", "test": "Increase in temperature of the true skin after application to the skin surface (Test No. 2, net effect TE)", "assay_type": "in vivo", "conditions": "Test (ii); ester as penetration agent at 0.5% (w/v) or more in gel-like tonic formulation containing Substance MH-548", "protocol": "For the purpose of confirming whether Substance P or Substance P-related peptide of the formula (II) is actually effective to increase the blood flow in the capillary blood vessels at a local area of the skin, we have conducted some experiments where the hair growth promoting formulation of this invention was applied to a local skin surface of monkies, and an increase in the temperature of the underlying true skin tissue below the local skin surface was measured, which should be considered to be invoked by such increase in the local blood flow at the local skin site owing to the vasodilating activity of Substance P or Substance P-related peptide of the formula (II).\nCynomolgus monkeys (Crab-eating macaques) (female, body weight 3.8-4.2 kg) were fixed each in a device for fixing the monkey. The hair was cut off from an area in the upper arms of each monkey. A probe of a thermometer for measurement of the temperature in a deep place (a thermometer commercially available from Telmo Co., Ltd., Japan) was sent into the hair-removed areas of each upper arm of the monkey, and the temperature in the true skin layer of the left and right upper arms of the monkey was measured before the administration of the active peptide for promoting the hair growth was made. […]\nThus, the following parameters were evaluated. […]", "data": [{"smiles": "CCOC(=O)CCCCCCCCC(=O)OCC", "note": "[di-ethyl sebacate]", "values": [{"measurement": "effect of increasing the temperature in the true skin (TE)", "result": "better effect than isopropyl myristate and di-isopropyl adipate"}]}]}
